Where no end group is shown, it is not given here.
Key:
HLA-A*0301 = HLA-A*0301 (Homo sapiens, UniProt P04439); experiment: MHC-peptide binding assay, inhibition of binding of radiolabeled standard peptide; conditions: read-out: MHC binding affinity HLA-A*0301
From the text: (§1) Assays were as described.

HLA-A*1101 = HLA-A*1101 (Homo sapiens, UniProt P04439, A114D/D185E/E176A/F33Y/L180Q/S129P/T187R); experiment: as above; conditions: unit not given in Table 1 (same values in Table 3 as IC50 nM), newly identified peptides, read-out: Affinity HLA-A*1101
From the text: as §1

HLA-A*3001 = HLA-A*3001 (Homo sapiens, UniProt P04439, D140H/D185E/E176W/F33S/G80R/H175R/K168Q/R138E/R41S); experiment: as above; conditions: read-out: MHC binding affinity HLA-A*3001
From the text: as §1

HLA-A*3101 = HLA-A*3101 (Homo sapiens, UniProt P04439, A270S/D185E/E176V/E277Q/F33T/G231S/G80R/H175R/I121M/I218V/I322F/K168Q/L300P/L318F/M331R/P217A/Q94H/R138Q/T323A/T345S/T97I/V358M); experiment: as above; conditions: read-out: MHC binding affinity HLA-A*3101
From the text: as §1

HLA-A*3301 = HLA-A*3301 (Homo sapiens, UniProt P04439, A270S/D185E/E176V/E277Q/E87N/F33T/G231S/H175R/I121M/I218V/I322F/K168Q/K210R/L300P/L318F/M331R/P217A/Q86R/Q94H/R138Q/T323A/T345S/T97I/V358M/Y195H); experiment: as above; conditions: read-out: MHC binding affinity HLA-A*3301
From the text: as §1

HLA-A*6801 = HLA-A*6801 (Homo sapiens, UniProt P04439, A269V/D185E/E176V/E277Q/E87N/F33Y/G231S/I121M/I166T/I218V/L180W/L300P/L318F/N151K/P208A/P217A/Q86R/R169H/T345S); experiment: as above; conditions: read-out: MHC binding affinity HLA-A*6801
From the text: as §1

[1] = system: splenocytes of HLA-A*1101 transgenic mice; experiment: Ex vivo IFN-γ ELISpot assay with splenocytes of immunized HLA-A*1101 transgenic mice; format: in vivo; conditions: Figure 3b; mice immunized with mixture of peptides and adjuvants compared with LpKS9-AM9-RS9
Method: To evaluate peptide immunogenicity, HLA-A*1101 transgenic mice were inoculated subcutaneously (s.c.) at the base of the tail using a 30-gauge needle with single peptides or a mixture of CD8^+ T cell peptides (50 μg of each peptide per mouse) and PADRE ([…]) emulsified in 20 μg of GLA-SE (TLR4 agonist) with or without Pam2Cys. Pam2Cys concentration was 5 mg/ml. For immunization with lipopeptides, HLA-A*1101 mice received 20 nmol lipopeptide dissolved in PBS or emulsified in GLA-SE. As controls, mice were injected with PBS or PBS/GLA-SE. For the lipopeptide immunizations, the mice were vaccinated twice at intervals of three weeks. For the peptide immunizations, mice were immunized three times at intervals of two weeks. For challenge studies, mice were immunized with peptide emulsions and challenged intraperitoneally (i.p.) 14 days post-immunization using 10,000 Type II parasites.
Mice were euthanized 7 to 14 days after immunization. […]
PBMC were obtained, HLA haplotype was determined, and they were processed and cryopreserved as described. […] Results were expressed as number of spot forming cells (SFCs) per 10^6 PBMCs or per 10^6 murine splenocytes.
Two-tailed P values < 0.05 were considered statistically significant. […] The experiment in Figure 7b determined immune response and imaged mice in parallel.

Sequence of HLA-A*3001 (P04439 25-365 limits assumed, stated change not applied): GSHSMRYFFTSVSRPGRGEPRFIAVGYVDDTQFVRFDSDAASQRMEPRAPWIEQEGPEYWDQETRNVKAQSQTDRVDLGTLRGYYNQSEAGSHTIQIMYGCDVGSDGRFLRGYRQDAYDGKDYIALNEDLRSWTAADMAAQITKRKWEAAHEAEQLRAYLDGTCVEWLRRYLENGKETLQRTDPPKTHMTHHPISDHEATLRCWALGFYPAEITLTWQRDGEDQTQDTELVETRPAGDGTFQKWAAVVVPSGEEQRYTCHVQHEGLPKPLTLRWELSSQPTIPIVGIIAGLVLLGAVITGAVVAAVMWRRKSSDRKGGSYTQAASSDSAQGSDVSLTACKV

Sequence	IC50 (HLA-A*0301) [nM]	IC50 (HLA-A*1101) [nM]	IC50 (HLA-A*3001) [nM]	IC50 (HLA-A*3101) [nM]	IC50 (HLA-A*3301) [nM]	IC50 (HLA-A*6801) [nM]	IFN-γ production on stimulation of spleen cells by the peptide [1]
AVVSLLRLLK	17	34	8.1	1300	1100	94	
RSFKDLLKK							not significant
SSAYVFSVK	12	10	1830	97	181	2.1	
STFWPCLLR	22	10	1270	1.2	3.4	0.97	
